What was measured:
[1] = mouse, in vivo; cited from earlier work
[2] = system: TH17 cells; conditions: in vitro and in vivo; cited from earlier work
[3] = system: EL-4 cells; test: Intracellular IL-17 in PMA/ionomycin stimulated EL-4 cells (flow cytometry); assay type: cell-based, murine; conditions: 5 μM, compared to vehicle treated cells
Experimental: (§1) The treatment of EL4 with SR2211 repressed the Il17 gene expression to a greater extent as compared to digoxin. […] In order to measure the effect of SR2211 on IL-17 production, we determined the intracellular levels of IL-17 using flow cytometry. After the stimulation of EL-4 cells with PMA/ionomycin for 3 hr, the cells were treated with BD GolgiPlug™ (protein transport inhibitor) to allow intracellular accumulation of cytokines. After 2 hr, the cells were fixed and stained to analyze the IL-17 by flow cytometry.
For intracellular cytokine staining, cells were stimulated with PMA (50 ng/Ml) and lonomycin (1 ug/ml) for 5 hrs. After 3 hrs of incubation, BD Golgiplug (BD Bioscience) was added and incubated for 2 hrs. Then, cells were fixed, permeabilized, and stained with PEIL17A Ab (BD Biosciences). Cell sorting was performed using LSRII (BD Biosciences). • 1. Ivanov, I I; McKenzie, B. S.; Zhou, L.; Tadokoro, C. E.; Lepelley, A.; Lafaille, J. J.; Cua, D. J.; Littman, D. R. (2006) The orphan nuclear receptor RORgammat directs the differentiation program of proinflammatory IL-17+ T helper cells. Cell 126, 1121-1133. • 2. Nakae, S.; Nambu, A.; Sudo. K.; Iwakura. Y. (2003) Suppression of immune induction of collagen-induced arthritis in IL-17-deficient mice. J Immunol 171, 6173-6177. • 3. Jetten. […]

[4] = system: EL-4 cells; test: IL-17A and IL-23R mRNA in PMA/ionomycin stimulated EL-4 cells (real-time PCR); assay type: cell-based, murine; conditions: 5 μM pre-treatment 20 hr, PMA/ionomycin stimulation
Experimental: as §1
One million EL-4 cells were seeded in each well of 6 well plate and incubated with 5 uM of digoxin or SR2211 or DMSO for 20 hrs. Cells were then stimulated with phorbol 12-myristate 13-acetate (PMA) (50 ng/ml; Sigma) and Ionomycin (1 ug/ml; Sigma) for 5 hours. Then, RNA was extracted with RNeasy midi kit using DNase I (Qiagen), then cDNA was synthesized with high capacity cDNA Reverse Transcription kits (Applied Biosystems). IL17A gene expression was normalized to the expression of GAPDH. IL17A, IL-23R and GAPDH primer sets were as follows: […]

Row | Structure (SMILES) | onset and severity of EAE [1] | TH17 cell differentiation and function [2] | IL-17 intracellular staining [3] | IL-17 gene expression [4] | expression of IL-23 receptor (Il23r) [4]
1 | CC(=O)Nc1nc(C)c(S(=O)(=O)Nc2ccc(C(O)(C(F)(F)F)C(F)(F)F)cc2)s1 [SR1001, N-(5-(N-(4-(1,1,1,3,3,3-hexafluoro-2-hydroxypropan-2-yl)phenyl)sulfamoyl)-4-methylthiazol-2-yl)acetamide] | effective at delaying the onset and reducing the severity | effective at suppressing TH17 cell differentiation and function in vitro and in vivo |  |  | 
2 | C[C@H]1O[C@@H](O[C@H]2[C@@H](O)C[C@H](O[C@H]3[C@@H](O)C[C@H](O[C@H]4CC[C@@]5(C)[C@H](CC[C@@H]6[C@@H]5C[C@@H](O)[C@]5(C)[C@@H](C7=CC(=O)OC7)CC[C@]65O)C4)O[C@@H]3C)O[C@@H]2C)C[C@H](O)[C@@H]1O [digoxin, reference compound] |  |  | significant inhibition of IL-17 intracellular staining | significant reduction in the IL-17 gene expression | significantly inhibited
